In article PMC7307906, “Macrocyclic Modalities Combining Peptide Epitopes and Natural Product Fragments” (Journal of the American Chemical Society, 2020):

Target: hMC1−5R
Assay: Melanocortin receptor cAMP assay, result stated for all receptors together
Assay type: cell-based, human
Conditions: one bound printed for all receptors
Text: Example concentration response curves for selected PepNats in MC1R, MC3R, MC4R, MC5R radioligand binding assays and MC1R, MC3R, MC4R cAMP assays. Responses were normalized to reference agonist NDP -α-MSH and presented as % effect of control, with full competition in binding defined as -100% and full agonism in cAMP assays defined as […]
binding assay. Threshold to define a compound as active was set to -30% in binding assays and 20% in cAMP assays respectively. Data are from at least three independent experiments and error bars represent ± Standard Error of the […]
% s p e c ific b in d in g o f
(1 picture or pasted object on this page, not shown here) […]
to the elution profile of the crude product . The relevant fractions containing the desired product were collected, analyzed by RP-HPLC-MS and accordingly pooled and lyophilized.
HRMS were obtained on a Thermo Scientific LTQ Fleet Orbitrap mass spectrometer coupled to an Accela HPLC-System (HPLC column: Hypersyl GOLD, 50 mm x 1 mm, particle size 1.9 μm) equipped with an electron spray ionization source (ESI). The mass detection was recorded in the range of […]
2) B) Biochemical Assays Materials and Methods
Surface Plasmon Resonance (SPR)
All SPR experiments were conducted on a Biacore T200, S200 or 8K instrument (GE Healthcare) at 20 °C using HBS-P+ as running buffer (GE Healthcare). […]

## CN1C(=O)[C@H]2N[C@@H](c3ccc(cc3)C(=O)NCCCC[C@@H](C(=O)N[C@@H](Cc3ccc(O)cc3)C(N)=O)NC(=O)[C@H](CC(N)=O)NC(=O)[C@@H](Cc3ccccc3)NC(=O)[C@@H](Cc3ccccc3)NC(=O)[C@H](CCCNC(=N)N)NC(=O)[C@@H]1Cc1ccccc1)[C@H]1C(=O)N(c3ccccc3)C(=O)[C@H]12 [K1-minor, [II-FRffNK ]Y]
  EC50: > 100 µM
